Test: xn = mol fraction of the nth substance listed

CCCCCCCC[P+](CC)(CC)CC.N#Cc1ccc[n-]1 + OCC(O)CO
viscosity [mPa·s], 100 kPa
Conditions | 293.15 K | 298.15 K | 303.15 K | 313.15 K
x1 = 0.031 | 1533 | 966 | 621 | 248
x1 = 0.071 | 1550 | 996 | 617 | 248
x1 = 0.109 | 1457 | 916 | 581 | 228
x1 = 0.16 | 1330 | 825 | 540 | 240
x1 = 0.222 | 1133 | 699 | 428 | 198
x1 = 0.297 | 903 | 584 | 405 | 187
x1 = 0.393 | 672 | 437 | 289 | 150
x1 = 0.457 | 608 | 408 | 274 | 138
x1 = 0.532 | 545 | 368 | 251 | 134
x1 = 0.615 | 519 | 357 | 245 | 129
x1 = 0.742 | 434 | 291 | 197 | 105
x1 = 0.833 | 372 | 252 | 167 | 89

CCCCCCCC[P+](CC)(CC)CC.N#Cc1ccc[n-]1 + OCCN(CCO)CCO
viscosity [mPa·s], 100 kPa
Conditions | 293.15 K | 298.15 K | 303.15 K | 313.15 K
x1 = 0.014 | 950 | 622 | 405 | 185
x1 = 0.025 | 986 | 640 | 415 | 190
x1 = 0.039 | 1004 | 657 | 426 | 193
x1 = 0.049 | 1011 | 660 | 426 | 193
x1 = 0.104 | 939 | 596 | 380 | 175
x1 = 0.167 | 824 | 539 | 351 | 163
x1 = 0.223 | 812 | 533 | 352 | 166
x1 = 0.315 | 722 | 474 | 314 | 152
x1 = 0.508 | 619 | 422 | 284 | 140
x1 = 0.647 | 600 | 406 | 273 | 136
x1 = 0.809 | 438 | 301 | 202 | 101

C1COCCN1 + OCCO
viscosity [mPa·s], 101 kPa
Conditions | 293.15 K | 303.15 K | 313.15 K | 323.15 K
x1 = 0.06476 | 23.01 | – | – | –
x1 = 0.06828 | – | – | 9.851 | –
x1 = 0.07 | 23.22 | 15.77 | 9.66 | 7
x1 = 0.2 | 24.69 | 16.33 | 10.32 | 7.69
x1 = 0.2273 | 24.37 | – | – | –
x1 = 0.2296 | – | – | 10.49 | –
x1 = 0.4 | 21.35 | 14.19 | 9.34 | 7.13
x1 = 0.4103 | 20.98 | – | – | –
x1 = 0.4144 | – | – | 9.259 | –
x1 = 0.6 | 11.83 | 8.07 | 6.02 | 4.41
x1 = 0.6173 | – | – | 6.339 | –
x1 = 0.6201 | 11.78 | – | – | –
x1 = 0.8601 | 4.454 | – | – | –
x1 = 0.8629 | – | – | 2.391 | –
x1 = 0.9 | 3.94 | 2.92 | 2.24 | 1.72

CC(O)CO (centres undefined) + OCCO
viscosity [mPa·s], 101 kPa
Conditions | x2 = 0.1212 | x2 = 0.2346 | x2 = 0.3459 | x2 = 0.4339 | x2 = 0.5501 | x2 = 0.631 | x2 = 0.7481 | x2 = 0.8299 | x2 = 0.9064
298.15 K | 41.61 | 38.96 | 36.05 | 33.67 | 30.55 | 28.37 | 25.1 | 22.65 | 20.25
303.15 K | 32.39 | 30.43 | 28.19 | 26.35 | 23.95 | 22.28 | 19.75 | 17.84 | 15.99
308.15 K | 24.28 | 22.97 | 21.42 | 20.15 | 18.48 | 17.31 | 15.55 | 14.2 | 12.9

[Cl-].[Na+] + OCCO
101 kPa, x1 = 0.0588
Conditions | viscosity [mPa·s]
303 K | 20.88
313 K | 14.11
323 K | 9.987

[Al] + [Ga]
323 K, 101 kPa
Conditions | viscosity [mPa·s]
x1 = 0.021 | 1.529
x1 = 0.1 | 1.638
